Marks after values point to notes of the source that are not given here.
Assays:
ALL-SCID 4 = test: Anticancer activity in human leukemia model ALL-SCID 4; details: for BW loss % (day) / Drug-related deaths: days 34-54
From the text: Anticancer activity of the sodium meta-arsenite and arsenic trioxide against two human paediatric acute lymphoblastic leukemia (ALL) models in vivo, ALL-SCID 4 was investigated to compare.
Male NOD/SCID mice (deficient in T and B lymphocytes, NK cells and functional macrophages) were transplanted s.c. on day 0 with fragments of ALL-SCID 4 cancers, which were obtained from mice used for routine passage of the cancers. Mice were randomized to the scheduled treatment groups.
Sodium meta-arsenite was administered orally at 2, 4 and 6 mg/kg/day (⅓ MTD, ⅔ MTD and MTD) once every day from day 34-54 after transplantation. The vehicle control (5% glucose in water) was administered i.p. (10 ml/kg).
Sodium meta-arsenite was dissolved in ready-to-use sterile infusion (5% (w/v) glucose in aqua injectabila). Arsenic trioxide was dissolved in 25 mM NaOH then dissolved in 5% glucose in aqua injectabila. The solutions were prepared freshly on the day of therapy for each administration.

RXF 944LX = test: Anticancer activity in RXF 944LX cancer bearing nude mice, intermittent and daily schedules; details: for MTD: i.p., RXF 944LX
Procedure: Cancer fragments (1-2 mm in diameter), obtained from xenografts in serial passage in nude mice, were implanted subcutaneously (S.C.) in a flank of male NRMI nude mice (one fragment per mouse). Mice with appropriate cancer volumes (5-7 mm in diameter) were randomly distributed to treatment and control groups (4 mice/group). The start of treatment was day 0. Cancer volume and body weights were measured at least twice per week.
The cancer volume of each animal was determined by two-dimensional measurement using calipers. The volume was calculated according to the formula: (a×b^2)×0.5; wherein a and b represent two perpendicular diameters in which a (length) is the larger diameter and b (width) the smaller diameter.
Relative cancer volumes (RCV) were calculated for each individual cancer by dividing the cancer volume on day X by the cancer volume on day 0 multiplied by 100%. The cancer volume of a treatment group was expressed as the median RCV of all mice of the group. Median RCV values were used for drawing growth curves and treatment evaluation. Optimal cancer growth inhibition at a particular day within the treatment period was calculated from the median RCV values of the treated (T) versus the controlled (C) group multiplied by 100%. A T/C value<50% was considered as anti-cancer activity.
In the experiment with renal cancer RXF 944LX, the anticancer activity of the compounds was explored using two administration schedules; 1) intermittent schedule of 4 days×3, and 2) a daily schedule for 2 weeks (days 0-4, 7-11).
The dose levels chosen for sodium meta-arsenite and arsenic acid sodium salt in these schedules were based on the experience in the 1st experiment. Additional small dose finding studies were executed.

[1] = Subacute toxicity study, daily oral gavages for 14 days in the mouse, 28-day recovery; assay type: in vivo, CD-1 male mice; details: for Hematology: day 5 and end of treatment
Procedure: The nature and purpose of this subacute oral toxicity study was to determine the extent to which cumulative toxicity occurred with repeated administration of sodium meta-arsenite for 14 days to mice. Moreover, the study was intended to define the most likely target organs for toxicity and to investigate the reversibility of toxicity.
Ampoules of sodium meta-arsenite (dissolved in 10% (w/v) glucose in water) in concentrations of 0, 1.6 and 3.2 mg/ml were stored in a refrigerator in the dark. Based on the previous study, the following doses were selected: 0, 16 (½ MTD) and 32 mg/kg/day (MTD). Each dose was administered daily by oral gavages to groups of 20 CD-1 male mice for 14 days, followed by a 28-day recovery period.
Ten animals of each group were killed on day 15 (main groups). The remaining animals (recovery groups) were killed on day 43 after a recovery period of 28 days. Blood samples were collected from all main group animals on day 5 to determine effects on the hematology. Blood samples were also collected at the end of the treatment period (day 15, all main group animals) and after recovery (day 43, all recovery group animals) for hematology and clinical biochemistry.
Clinical signs were evaluated daily and body weights were recorded twice weekly. Macroscopic examination was performed at termination. Organ weight measurements were performed at scheduled termination, i.e. day 15 (main groups) and day 43 (recovery groups). Microscopic examination was performed on a selection of tissues of both main and recovery animals.

[2] = Maximum tolerated dose assessment after daily oral gavages for 14 days in the rat; assay type: in vivo, Wistar rats; details: for Findings / Findings (mortality): rat; for MTD (or LD10 value): rats, oral once daily 14 days, calculated
Procedure: The objective of this oral toxicity study was to establish a MTD after repeated administration of sodium meta-arsenite to rats.
Ampoules of sodium meta-arsenite (dissolved in 10% (w/v) glucose in water) in concentrations of 1.2, 2.2, 3.8, 7.0 and 12.6 mg/ml were stored in a refrigerator in the dark. Based on the previous study, the following doses were selected: 6, 11, 19, and 35 and 63 mg/kg/day. Each dose was administered daily by oral gavages to groups of 4 male and 4 female Wistar rats for 14 days, followed by a 14-day recovery period.
Clinical signs were evaluated daily, and body weights were recorded twice weekly. Scheduled termination was performed on day 29 (after 14 days of recovery). Macroscopic examination was performed on all animals.

[3] = 8 mg/kg i.p., days 0-4, 7, 14-18

For `O=[As][O-].[Na+]` [Sodium meta-arsenite, sodium meta-arsenite], the “BW loss % (day)” value (ALL-SCID 4; 2 mg/kg p.o.) was 0 (44) %, the Drug-related deaths (ALL-SCID 4; 2 mg/kg p.o.) was 0/8 and the T/C % (ALL-SCID 4; 2 mg/kg p.o., days 34-54 (⅓ MTD)) was 38* %. For the same compound, the T/C % (ALL-SCID 4; 2 mg/kg p.o., days 34-54 (⅓ MTD), listed as sodium meta-arsenite) was 38%, the “BW loss % (day)” value (ALL-SCID 4; 4 mg/kg p.o.) was “+5 (44) %” and the Drug-related deaths (ALL-SCID 4; 4 mg/kg p.o.) was 0/8. For the same compound, the T/C % (ALL-SCID 4; 4 mg/kg p.o., days 34-54 (⅔ MTD)) was 55* %, the T/C % (ALL-SCID 4; 4 mg/kg p.o., days 34-54 (⅔ MTD), listed as sodium meta-arsenite) was 55% and the “BW loss % (day)” value (ALL-SCID 4; 6 mg/kg p.o.) was “+5 (44) %”. For the same compound, the Drug-related deaths (ALL-SCID 4; 6 mg/kg p.o.) was 0/8, the T/C % (ALL-SCID 4; 6 mg/kg p.o., days 34-54 (MTD)) was 48* % and the T/C % (ALL-SCID 4; 6 mg/kg p.o., days 34-54 (MTD), listed as sodium meta-arsenite) was 48%. For the same compound, the MTD (ALL-SCID 4; small dose finding studies prior to the ALL-SCID 4 study) was 6 mg/kg/day, the “Body weight loss and lethality” value (ALL-SCID 4; treated groups 2, 4, 6 mg/kg/day p.o.) was “not observed” and the “BW loss % (day)” value (RXF 944LX; 4 mg/kg i.p., days 0-4, 7-11) was −3 (7) %. For the same compound, the Drug-related deaths (RXF 944LX; 4 mg/kg i.p., days 0-4, 7-11) was 2/6, the “SGD (specific growth delay)” value (RXF 944LX; 4 mg/kg i.p., days 0-4, 7-11) was 0.1 and the T/C % (RXF 944LX; 4 mg/kg i.p., days 0-4, 7-11) was 55%. The “BW loss % (day)” value (RXF 944LX; 5 mg/kg i.p., days 0, 4, 8) was −2 (3) %, the Drug-related deaths (RXF 944LX; 5 mg/kg i.p., days 0, 4, 8) was 0/6 and the “SGD (specific growth delay)” value (RXF 944LX; 5 mg/kg i.p., days 0, 4, 8) was −0.5. The T/C % (RXF 944LX; 5 mg/kg i.p., days 0, 4, 8) was 84%, the “BW loss % (day)” value (RXF 944LX; [3]) was −14 (10) % and the Drug-related deaths (RXF 944LX; [3]) was 3/6. For the same compound, the Drug-related deaths (RXF 944LX; 10 mg/kg i.p., days 0, 4, 8) was 5/6, the MTD (RXF 944LX; daily schedule (days 0-4, 7-11)) was 4 mg/kg/day and the MTD (RXF 944LX; intermittent schedule (4 days×3)) was 5 mg/kg/day. For the same compound, the Clinical signs ([1]; 16 mg/kg/day oral 14 days, mouse) was “swelling of the abdomen and piloerection”, the Hematology ([1]; 16 mg/kg/day) was “lower erythrocyte count, hemoglobin and haematocrit” and the Microscopic examination ([1]; 16 mg/kg/day, end of treatment) was “atrophy of the lymphoid organs (Peyer's patches, thymus), ulceration and hyperplasia of the fore stomach epithelium, necrosis of liver and gall bladder and myeloid hyperplasia and congestion of the sternal bone marrow”. The Necropsy findings ([1]; 16 mg/kg/day, end of treatment) was “crateriform retractions of the fore stomach”, the Clinical signs ([1]; 32 mg/kg/day oral 14 days, mouse) was “swelling of the abdomen and piloerection” and the “Premature mortality during the treatment phase, males” value ([1]; 32 mg/kg/day oral 14 days, groups of 20 male mice) was 7. The Necropsy findings ([1]; 32 mg/kg/day, after treatment) was “crateriform retractions of the forestomach and a reduced thymus size”, the Hematology ([1]; 32 mg/kg/day) was “Lower leucocyte count, platelet count, affected erythrocyte parameters (lower erythrocyte count, hemoglobin and haematocrit) and low reticulocyte counts” and the Clinical biochemistry ([1]; 32 mg/kg/day, end of treatment) was “Decreased glucose, total protein and albumin concentrations and increased sodium, calcium and inorganic phosphorus concentrations”. For the same compound, the Microscopic examination ([1]; 32 mg/kg/day, end of treatment) was “atrophy of the lymphoid organs (mesenteric and mandibular lymph nodes, Peyer's patches, spleen and thymus), ulceration and hyperplasia of the fore stomach epithelium, ulceration of the caecum, necrosis of the liver and gall bladder”, the Organ weights ([1]; 32 mg/kg/day, end of treatment) was “Decreased absolute and relative spleen and thymus weight and increased relative liver weight” and the “Main target organs for toxicity” value ([1]; 16 and 32 mg/kg/day oral 14 days, mouse) was “bone marrow, lymphoid organs and the forestomach”. For the same compound, the Findings ([2]; 6 mg/kg/day oral gavage 14 days) was “No findings were noted”, the Findings ([2]; 11 mg/kg/day oral gavage 14 days) was “Hunched posture was noted in one male from day 7-13 of treatment, diarrhea was observed for one male on day 6” and the Findings ([2]; 19 mg/kg/day oral gavage 14 days) was “Hunched posture (day 6-14 of treatment) was noted in 2 males”. The “Findings (mortality)” value ([2]; 35 mg/kg/day oral gavage 14 days) was “One male was found dead on day 13 of treatment, all females died between days 3 to 6”, the “Findings (mortality)” value ([2]; 63 mg/kg/day oral gavage 14 days) was “All animals died on days 2 to 5” and the “MTD (or LD10 value)” value ([2]; females) was 25 mg/kg/day. For the same compound, the “MTD (or LD10 value)” value ([2]; males) was 33 mg/kg/day.

Reference: patent publication US20090061022A1, “Pharmaceutical composition comprising arsenite for the treatment of malignancy” (priority 2004, published 2009)
